Consider 71 compounds from doi:10.1101/2023.02.14.528391v1 (biorxiv, 2023).

Like-named read-outs stand apart in the source and are kept apart here.

The data set has as its target hERG potassium channel (Homo sapiens, UniProt Q12809). The data set is described as follows: in vitro.

hERG potassium channel, sequence (Q12809 whole entry): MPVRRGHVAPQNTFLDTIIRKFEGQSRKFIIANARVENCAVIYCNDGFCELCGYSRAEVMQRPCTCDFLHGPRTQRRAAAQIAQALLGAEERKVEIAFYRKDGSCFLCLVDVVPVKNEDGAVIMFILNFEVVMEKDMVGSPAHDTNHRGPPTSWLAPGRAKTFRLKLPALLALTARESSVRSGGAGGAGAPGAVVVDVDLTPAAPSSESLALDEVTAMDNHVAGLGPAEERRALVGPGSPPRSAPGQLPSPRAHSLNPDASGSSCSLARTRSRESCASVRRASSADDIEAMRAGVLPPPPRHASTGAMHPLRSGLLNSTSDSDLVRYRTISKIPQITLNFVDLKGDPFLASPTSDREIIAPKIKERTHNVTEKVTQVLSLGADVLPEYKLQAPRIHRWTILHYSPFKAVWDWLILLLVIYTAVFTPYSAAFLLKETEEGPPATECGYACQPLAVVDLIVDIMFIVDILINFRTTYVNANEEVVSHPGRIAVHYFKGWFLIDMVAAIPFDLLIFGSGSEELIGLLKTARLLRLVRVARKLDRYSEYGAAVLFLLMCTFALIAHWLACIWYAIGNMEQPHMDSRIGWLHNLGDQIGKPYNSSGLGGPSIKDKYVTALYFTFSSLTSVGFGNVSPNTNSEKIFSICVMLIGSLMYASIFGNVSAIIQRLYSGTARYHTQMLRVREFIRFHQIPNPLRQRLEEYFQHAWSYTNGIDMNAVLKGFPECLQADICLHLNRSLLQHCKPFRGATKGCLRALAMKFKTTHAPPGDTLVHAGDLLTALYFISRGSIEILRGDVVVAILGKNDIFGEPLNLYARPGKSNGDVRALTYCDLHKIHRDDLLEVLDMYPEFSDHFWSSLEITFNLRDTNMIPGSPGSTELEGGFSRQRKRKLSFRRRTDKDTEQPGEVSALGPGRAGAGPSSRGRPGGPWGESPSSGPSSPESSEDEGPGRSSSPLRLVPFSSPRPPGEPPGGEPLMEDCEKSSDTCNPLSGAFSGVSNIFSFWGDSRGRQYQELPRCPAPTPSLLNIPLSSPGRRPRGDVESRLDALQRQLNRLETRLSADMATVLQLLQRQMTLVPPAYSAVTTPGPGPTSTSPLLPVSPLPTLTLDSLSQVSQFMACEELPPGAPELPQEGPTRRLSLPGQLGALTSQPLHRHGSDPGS

Usually inhibition stands for the relative decrease from the control value, in per cent. On to `CN(Cc1sccc1Cl)C[C@H]1CCCCN1C(=O)c1ncccc1F`, for which the inhibition at 10 µM (% inhibition) turned out to be 27.4%.

As for `CN(CCN(C)C(=O)c1cccnc1N(C)C)Cc1cccc(Cl)c1`, for the setting “% inhibition”, the inhibition at 10 µM turned out to be 17.1%.

With `CN(CCCN(C)C(=O)c1ccnc2ccsc12)C(=O)c1cncc(Cl)c1`, under “% inhibition”, the inhibition at 10 µM stood at 2.59%.

Regarding `CN(C)CCc1nc2ccccc2n1Cc1ccccc1Cl` [GMD_7286], the inhibition at 10 µM (% inhibition) came out at 51.3%.

As to `Cc1ccccc1Cn1c(CCN(C)C)nc2ccccc21` [GMD_8492], the inhibition at 10 µM (% inhibition) is 9.23%.

For the compound `CN(C)CCc1nc2ccccc2n1Cc1ccc(F)cc1` [GMD_9161], for the setting “% inhibition”, the inhibition at 10 µM was 6.04%.

Turning to `CN(C)CCc1nc2ccccc2n1Cc1ccc(F)c(F)c1` [GMD_9634], the inhibition at 10 µM (% inhibition) stood at 16.1%.

As to `CN(C)CCc1nc2ccccc2n1CCc1ccccc1` [GMD_12737], the inhibition at 10 µM (% inhibition) came to 45.4%.

Turning to `CN(C)CCn1nc(-c2ccccn2)c2ccccc2c1=O` [GMD_13601], the inhibition at 10 µM (% inhibition) was 16.6%.

For the compound `CN(C)CCCn1nc(-c2ccccc2Cl)c2ccccc2c1=O` [GMD_16666], the inhibition at 10 µM (% inhibition) was found to be 10.6%.

As to `CN(C)CCn1nc(-c2ccccc2)c2ccccc2c1=O` [GMD_24043], the inhibition at 10 µM (% inhibition) was found to be 60.1%.

`CN(C)CCn1nc(-c2cccnc2)c2ccccc2c1=O` [GMD_36918]: where the note is “% inhibition”, the inhibition at 10 µM is 2.87%.

On to `CN(C)CCn1nc(-c2ccncc2)c2ccccc2c1=O` [NBI1099472], for which, under “% inhibition”, the inhibition at 10 µM worked out at 15%.

For the compound `CN(C)CCn1nc(-c2cncc(Cl)c2)c2ccccc2c1=O` [NBI1099473], the inhibition at 10 µM (% inhibition) stood at 86.1%.

Turning to `CN(C)CCCn1nc(-c2ccncc2)c2ccccc2c1=O` [NBI1099478], the inhibition at 10 µM (% inhibition) is 23.4%.

With `CN(C)CCn1nc(-c2cccs2)c2ccccc2c1=O` [NBI1099533], the inhibition at 10 µM (% inhibition) was 9.92%.

For the compound `CSc1ncccc1-c1nn(CCN(C)C)c(=O)c2ccccc12` [NBI1100648], the inhibition at 10 µM (% inhibition) stood at 44.2%.

In the case of `Cc1ccc(-c2nn(CN(C)CCC3CCOCC3)c(=O)c3ccccc23)cc1` [m_26____7043632____590162], the inhibition at 10 µM (% inhibition) amounted to 7.12%.

On to `CC1CCCCC1N=c1scc(-c2ccnn2C)n1N=Cc1ccc(Cl)cn1` (centres unmarked) [s_1____86334____13026574____11759950], for which the inhibition at 10 µM (% inhibition) was -2.58%.

Consider `CN(C)CCC(Sc1nccn1Cc1ccccn1)c1ccccc1` (centres unmarked) [s_7____4839872____13940010], for which, for the setting “% inhibition”, the inhibition at 10 µM worked out at 5.79%.

Take `CN(C)CCCSc1nnc(-c2cnccn2)n1-c1ccc(Cl)cc1` [s_7____7285292____9475634]: the inhibition at 10 µM (% inhibition) was 32.1%.

As to `CN(C)CCC(Sc1ccncc1F)c1ccccc1` (centres unmarked) [s_7____14325654____13940010], the inhibition at 10 µM (% inhibition) turned out to be 47.3%.

Regarding `CN(C)CCN(Cc1ccccc1)C(=O)c1ncccc1Cl` [s_11____117338____10437082], the inhibition at 10 µM (% inhibition) amounted to 9.12%.

As for `CN(C)CCN(CCc1ccccc1)C(=O)c1csc2cc(Cl)cnc12` [s_11____764634____11618976], where the note is “% inhibition”, the inhibition at 10 µM is 88.2%.

For the compound `CC(=Cc1ccccn1)C(=O)N(CCN(C)C)c1ccccc1` [s_11____2264406____11762612], the inhibition at 10 µM (% inhibition) is 18.8%.

`CN(C)CCN(C(=O)c1cccc2ncccc12)c1ccccc1` [s_11____2264406____15260550]: for the setting “% inhibition”, the inhibition at 10 µM was found to be 21.8%.

Take `COc1cc(C(=O)N(CCN(C)C)c2ccccc2)c2ncccc2c1` [s_11____2264406____15769708]: where the note is “% inhibition”, the inhibition at 10 µM stood at 22.5%.

`CN(C)CCN(Cc1ccccc1F)C(=O)c1cccc2cccnc12` [s_11____4836284____101939]: the inhibition at 10 µM (% inhibition) was determined as 55%.

As to `CN(C)CCN(Cc1ccc(F)cc1F)C(=O)c1cc(Br)ncc1Cl` [s_11____4836304____10207328], where the note is “% inhibition”, the inhibition at 10 µM was 28.7%.

For `CN(C)CCN(Cc1ccsc1)C(=O)c1cc2c(Cl)cncc2s1` [s_11____10910498____13033826], the inhibition at 10 µM (% inhibition) is 79.5%.

On to `CC(=Cc1ccccc1Cl)C(=O)N(CCN(C)C)c1ccccn1` [s_11____17828754____7832710], for which, where the note is “% inhibition”, the inhibition at 10 µM turned out to be 48.4%.

For the compound `Cc1ccc2c(C(=O)N(CCN(C)C)c3ccccn3)ccnc2c1Cl` [s_11____17828754____14179334], the inhibition at 10 µM (% inhibition) worked out at 29.9%.

Take `Cc1cccc2c(C(=O)N(CCN(C)C)c3ccccn3)cnn12` [s_11____17828754____16474570]: under “% inhibition”, the inhibition at 10 µM amounted to 20.8%.

Regarding `CN(C)CCN(Cc1ccccc1F)C(=O)Cc1c[nH]c2nccc(Cl)c12` [s_22____1322108____13142180], the inhibition at 10 µM is 38.7%.

On to `CN(C)CCCN(Cc1ccc(Cl)c(Cl)c1)C(=O)c1nccnc1Cl` [s_22____1500308____12360522], for which the inhibition at 10 µM (% inhibition) turned out to be 57.7%.

On to `CN(C)CCN(CCCc1ccccc1)C(=O)c1cn(C)c2ccccc12` [s_22____2161756____115777], for which the inhibition at 10 µM (% inhibition) is 63.8%.

On to `CN(C)CCN(Cc1ccc(F)c(F)c1)C(=O)c1ccnc(Cl)c1Cl` [s_22____2224104____12421166], for which the inhibition at 10 µM (% inhibition) turned out to be 23.5%.

`CN(C)CCN(Cc1cccc(F)c1)C(=O)CSc1nc2ccccc2n1C` [s_22____2224108____339636]: the inhibition at 10 µM (% inhibition) is 75.6%.

For the compound `Cc1cccc(CN(CCN(C)C)C(=O)C2=Cc3ccc(Cl)cc3OC2)c1` [s_22____3218898____13770932], the inhibition at 10 µM (% inhibition) was 94.3%.

Take `COCCN(CCN(C)C)C(=O)c1cccnc1Oc1ccc(Cl)cc1Cl` [s_22____3489604____2009120]: the inhibition at 10 µM (% inhibition) was found to be 48.6%.

`COc1c(Cl)cc(C(=O)N(CCN(C)C)C2CCCCC2)c2ncccc12` [s_22____4639446____15428718]: the inhibition at 10 µM (% inhibition) was 42.7%.

With `CN(C)CCN(Cc1nccn1C)C(=O)c1ccn(-c2ccccc2Cl)n1` [s_22____16636986____2366818], the inhibition at 10 µM (% inhibition) was determined as 25.8%.

As for `CN(C)CCN(Cc1ccccc1F)c1ncc(Cl)cc1Cl` [s_27____7100864____12221638], the inhibition at 10 µM (% inhibition) came out at 86.4%.

On to `CN(C)CCCN(Cc1ccc(Cl)c(Cl)c1)c1cnc2ccccc2n1` [s_27____7425384____262944], for which the inhibition at 10 µM (% inhibition) amounted to 93.6%.

For the compound `Cc1csc2ccnc(N3CCOCC4(COCCN4Cc4ccccc4)C3)c12` (centres unmarked) [s_27____15756872____16607386], the inhibition at 10 µM (% inhibition) came to 62.1%.

In the case of `CN(C)CCN(Cc1nccn1C)c1cc(C(F)F)nc2ccc(Cl)cc12` [s_27____16636988____10213920], the inhibition at 10 µM (% inhibition) worked out at 61%.

On to `Cc1cc2nc(Cl)nc(N(CCN(C)C)Cc3nccn3C)c2s1` [s_27____16636988____12112620], for which the inhibition at 10 µM (% inhibition) was determined as 71.2%.

Take `CN(C)CCN(Cc1nccn1C)c1nc(-c2ccccn2)nc2sccc12` [s_27____16636988____12321872]: the inhibition at 10 µM (% inhibition) is 91.6%.

On to `CN(C)CCN(Cc1nccn1C)c1nc2cc(Cl)ccc2s1` [s_27____16636988____14057938], for which the inhibition at 10 µM (% inhibition) amounted to 89.1%.

`CN(C)CCN(Cc1ccccc1)C(=O)c1cc(-c2ccccn2)ccc1Cl` [s_527____284286____7794996]: under “% inhibition”, the inhibition at 10 µM came out at 55%.

Consider `Cc1ccc(C(=O)N(CCN(C)C)Cc2ccccc2)c2ncccc12` [s_527____284286____13308974], for which the inhibition at 10 µM (% inhibition) amounted to 69.2%.

On to `CN(C)CCCN(Cc1ccc(Cl)c(Cl)c1)C(=O)c1nccc2ncccc12` [s_527____1500312____14775532], for which the inhibition at 10 µM (% inhibition) stood at 40%.

Consider `CN(C)CCCN(Cc1ccc(Cl)c(Cl)c1)C(=O)c1ccn2c1CSCC2` [s_527____1500312____16910956], for which the inhibition at 10 µM (% inhibition) came to 66.8%.

In the case of `CN(C)CCN(Cc1ccccc1F)C(=O)c1cccc2ncccc12` [s_527____7348186____237975], for the setting “% inhibition”, the inhibition at 10 µM is 1.57%.

Consider `Cc1ccc2cc(C(=O)N(CCN(C)C)Cc3ccccc3F)ccc2n1` [s_527____7348186____7593650], for which the inhibition at 10 µM (% inhibition) was determined as 21.8%.

`Cc1cccc2c(C(=O)N(CCN(C)C)Cc3ccccc3F)nccc12` [s_527____7348186____14188826]: the inhibition at 10 µM (% inhibition) is 52.7%.

On to `CN(C)CCN(Cc1ccccc1F)C(=O)c1nccc2ncccc12` [s_527____7348186____14775532], for which the inhibition at 10 µM (% inhibition) turned out to be 33.1%.

In the case of `CN(C)CCN(Cc1ccccc1F)C(=O)c1c(Cl)ccc2cccnc12` [s_527____7348186____16891240], the inhibition at 10 µM (% inhibition) came to 59.1%.

Consider `Clc1ccccc1N(CCN1CCOCC1)Cc1cc2ncccc2s1` [s_2230____12297302____16648172], for which the inhibition at 10 µM (% inhibition) was found to be 66%.

Regarding `Clc1ccccc1-n1ccc(CNC2(c3ncccn3)CCOCC2)n1` [s_2230____13270592____17316260], the inhibition at 10 µM (% inhibition) is -0.942%.

For the compound `CN(C)CCN(CCO)Cc1csc(-c2c(Cl)cccc2Cl)n1` [s_2230____15141024____14479640], the inhibition at 10 µM (% inhibition) was 9.6%.

Consider `CN(C)c1ncccc1CN1CCN(C(=O)c2c(Cl)cccc2Cl)CC1` [s_270004____8133704____10229386], for which, for the setting “% inhibition”, the inhibition at 10 µM was 2.59%.

As to `CN(C)CCN(Cc1ccccc1)Cc1c(Cl)cccc1-n1ccnc1` [s_270004____10205888____17057166], the inhibition at 10 µM (% inhibition) turned out to be 71.1%.

Take `CN(C)CCCN(C)Cc1c(-c2ccccc2F)nn(C)c1Cl` [s_270004____10205916____16947572]: the inhibition at 10 µM (% inhibition) is 17.6%.

With `COCCN(CCN(C)C)Cc1c(Cl)cccc1Oc1ccccc1` [s_270004____10206068____8363900], the inhibition at 10 µM (% inhibition) was determined as 99%.

As for `CN(C)CCN(Cc1cccs1)Cc1cc2cnn(C)c2nc1Cl` [s_270004____10206112____16971162], under “% inhibition”, the inhibition at 10 µM was 78.3%.

In the case of `CN(C)CCN(Cc1cccc(OCc2ccc(F)cc2)c1)Cc1nccn1C` [s_270004____16637008____8127840], where the note is “% inhibition”, the inhibition at 10 µM was determined as 91.3%.

With `CN(C)CCOc1ccccc1-c1cn(C)c2cccnc12` [s_271570____11676396____16733458], the inhibition at 10 µM (% inhibition) amounted to 63.8%.

As to `CN(C)CCN(Cc1ccccc1F)C(=O)N1CCSc2ncccc21` [s_272164____9389146____17325014], the inhibition at 10 µM (% inhibition) turned out to be 37.3%.

In the case of `CN(C)CCN(Cc1ccccc1)C(=O)N1CCSc2ccncc21` [s_272164____9389444____9363352], the inhibition at 10 µM (% inhibition) turned out to be 31.1%.

Take `CN(C)CCN(Cc1cccc(Cl)c1)C(=O)N1CCSc2ccncc21` [s_272164____9389444____9369516]: the inhibition at 10 µM (% inhibition) amounted to 75.9%.
